pIC50, pKi: −log10 of the molar value. The source made the active and inactive calls. No cut-off for these calls is given here.
Assays:
[1] = molecular target: T1, Amine oxidase [flavin-containing] A (Homo sapiens, UniProt P21397); assay: Inhibition of human recombinant MAO-A using kynuramine substrate at 10 uM by spectrophotometric assay
T1 sequence (P21397 whole entry): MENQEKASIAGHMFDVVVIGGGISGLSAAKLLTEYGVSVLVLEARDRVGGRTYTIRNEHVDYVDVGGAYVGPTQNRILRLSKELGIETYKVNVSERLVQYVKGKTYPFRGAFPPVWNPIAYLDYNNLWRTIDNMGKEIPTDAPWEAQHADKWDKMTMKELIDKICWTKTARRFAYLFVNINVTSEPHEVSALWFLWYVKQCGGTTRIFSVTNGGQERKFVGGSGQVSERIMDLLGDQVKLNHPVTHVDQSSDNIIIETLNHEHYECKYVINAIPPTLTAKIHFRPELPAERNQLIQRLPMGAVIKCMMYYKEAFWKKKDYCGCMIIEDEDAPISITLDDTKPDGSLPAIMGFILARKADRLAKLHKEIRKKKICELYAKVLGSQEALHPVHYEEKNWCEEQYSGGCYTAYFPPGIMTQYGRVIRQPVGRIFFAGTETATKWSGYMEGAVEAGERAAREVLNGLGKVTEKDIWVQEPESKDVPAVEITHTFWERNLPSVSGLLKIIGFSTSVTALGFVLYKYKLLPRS

[2] = molecular target: T2, Amine oxidase [flavin-containing] B (Homo sapiens, UniProt P27338); assay: Inhibition of human recombinant MAO-B using kynuramine substrate at 10 uM by spectrophotometric assay
T2 sequence (P27338 whole entry): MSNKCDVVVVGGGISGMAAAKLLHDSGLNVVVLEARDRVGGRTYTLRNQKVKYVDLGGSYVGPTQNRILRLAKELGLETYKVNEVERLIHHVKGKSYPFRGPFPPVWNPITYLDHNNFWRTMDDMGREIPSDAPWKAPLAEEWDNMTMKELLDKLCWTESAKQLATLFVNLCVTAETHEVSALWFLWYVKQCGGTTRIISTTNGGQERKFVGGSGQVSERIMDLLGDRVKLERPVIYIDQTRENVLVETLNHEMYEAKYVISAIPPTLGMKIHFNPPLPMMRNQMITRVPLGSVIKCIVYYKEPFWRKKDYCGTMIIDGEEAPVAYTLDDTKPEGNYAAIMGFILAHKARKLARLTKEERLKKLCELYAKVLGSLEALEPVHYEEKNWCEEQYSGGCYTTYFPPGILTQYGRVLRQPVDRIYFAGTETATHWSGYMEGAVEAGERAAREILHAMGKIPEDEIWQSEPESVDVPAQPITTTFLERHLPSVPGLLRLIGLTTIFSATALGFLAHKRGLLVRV

[3] = molecular target: T3, Amine oxidase [flavin-containing] A (Rattus norvegicus, UniProt P21396); assay: Inhibition of rat brain MAO-A using kynuramine substrate […] at 10 uM by spectrophotometric assay
T3 sequence (P21396 whole entry): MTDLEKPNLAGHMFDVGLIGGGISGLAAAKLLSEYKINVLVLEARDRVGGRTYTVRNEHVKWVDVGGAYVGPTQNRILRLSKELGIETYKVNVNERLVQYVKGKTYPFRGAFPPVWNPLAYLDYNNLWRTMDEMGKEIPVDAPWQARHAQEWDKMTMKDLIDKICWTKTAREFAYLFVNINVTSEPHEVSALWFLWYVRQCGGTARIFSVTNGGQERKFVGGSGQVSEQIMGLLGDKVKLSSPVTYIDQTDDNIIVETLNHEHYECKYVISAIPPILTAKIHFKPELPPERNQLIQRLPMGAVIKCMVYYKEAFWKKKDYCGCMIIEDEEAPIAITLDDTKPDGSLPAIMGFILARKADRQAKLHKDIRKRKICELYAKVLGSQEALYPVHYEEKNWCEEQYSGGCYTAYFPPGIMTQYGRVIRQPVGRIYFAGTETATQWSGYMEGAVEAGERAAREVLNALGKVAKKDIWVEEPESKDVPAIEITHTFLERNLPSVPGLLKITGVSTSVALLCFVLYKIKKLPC

[4] = molecular target: T1, Amine oxidase [flavin-containing] A; assay: Inhibition of human recombinant MAO-A using kynuramine substrate at 4 uM by spectrophotometric assay
[5] = molecular target: Acetylcholinesterase (Homo sapiens, UniProt P22303); assay: Inhibition of human recombinant AChE by spectrophotometric Ellman's method
[6] = molecular target: Cholinesterase (Equus caballus, UniProt P81908); assay: Inhibition of equine serum BuChE by spectrophotometric Ellman's method
[7] = molecular target: T4, Amine oxidase [flavin-containing] B (Rattus norvegicus, UniProt P19643); assay: Inhibition of rat brain MAO-B using kynuramine substrate […] at 10 uM by spectrophotometric assay
T4 sequence (P19643 whole entry): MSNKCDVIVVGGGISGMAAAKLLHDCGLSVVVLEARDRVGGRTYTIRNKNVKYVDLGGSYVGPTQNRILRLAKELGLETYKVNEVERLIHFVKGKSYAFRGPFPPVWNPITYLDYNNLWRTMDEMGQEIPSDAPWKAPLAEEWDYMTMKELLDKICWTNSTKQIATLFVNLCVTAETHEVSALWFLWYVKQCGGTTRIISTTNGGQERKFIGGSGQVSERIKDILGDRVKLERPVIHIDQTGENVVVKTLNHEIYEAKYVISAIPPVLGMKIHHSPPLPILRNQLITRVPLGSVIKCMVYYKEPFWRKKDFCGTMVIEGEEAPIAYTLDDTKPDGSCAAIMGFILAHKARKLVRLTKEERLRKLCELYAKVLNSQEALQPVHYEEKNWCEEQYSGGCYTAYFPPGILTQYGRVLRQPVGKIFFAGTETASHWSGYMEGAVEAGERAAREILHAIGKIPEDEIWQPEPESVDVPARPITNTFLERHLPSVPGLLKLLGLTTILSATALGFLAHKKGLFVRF

[8] = molecular target: T5, Acetylcholinesterase (Electrophorus electricus, UniProt O42275); assay: Inhibition of electric eel AChE by spectrophotometric Ellman's method
[9] = molecular target: T2, Amine oxidase [flavin-containing] B
Description: Inhibition of human recombinant MAO-B using kynuramine substrate by spectrophotometric assay

[10] = molecular target: T4, Amine oxidase [flavin-containing] B; assay: Inhibition of rat brain MAO-B using kynuramine substrate […] by spectrophotometric assay
[11] = molecular target: T1, Amine oxidase [flavin-containing] A; assay: Inhibition of human recombinant MAO-A using kynuramine substrate by spectrophotometric assay
[12] = molecular target: T6, Cholinesterase (Homo sapiens, UniProt P06276); assay: Inhibition of human serum BuChE at 10 uM by spectrophotometric Ellman's method
[13] = molecular target: T3, Amine oxidase [flavin-containing] A; assay: Inhibition of rat brain MAO-A using kynuramine substrate […] by spectrophotometric assay
[14] = molecular target: T6, Cholinesterase; assay: Inhibition of human serum BuChE by spectrophotometric Ellman's method
[15] = species: Rattus norvegicus; assay: Selectivity index, ratio of IC50 for rat brain MAO-A to IC50 for rat brain MAO-B
[16] = molecular target: T5, Acetylcholinesterase; assay: Mixed type inhibition of electric eel AChE by Lineweaver-Burk plot
[17] = system: MDR1; assay: Apparent permeability from basolateral to apical side in MDCK2 cells expressing MDR1 at 200 ug/ml by UV-visible spectroscopy; format: ADME, cell-based, Canis lupus familiaris, MDCK-II; conditions: dog, MDCK-MDR1
[18] = system: SH-SY5Y; assay: Neuroprotective activity in human SH-SY5Y cells assessed as inhibition H2O2-induced reduction of cell survival at 10 uM after 24 hrs by MTT assay; format: functional, cell-based
[19] = system: MDR1; assay: Efflux ratio of apparent permeability from basolateral to apical side to apical to basolateral side in MDCK2 cells expressing MDR1 at 200 ug/ml by UV-visible spectroscopy; format: ADME, cell-based, Canis lupus familiaris, MDCK-II; conditions: dog, MDCK-MDR1
[20] = system: MDR1; assay: Apparent permeability from apical to basolateral side in MDCK2 cells expressing MDR1 at 200 ug/ml by UV-visible spectroscopy; format: ADME, cell-based, Canis lupus familiaris, MDCK-II; conditions: dog, MDCK-MDR1
[21] = system: SH-SY5Y; assay: Neuroprotective activity in human SH-SY5Y cells assessed as inhibition H2O2-induced reduction of cell survival at 1 uM after 24 hrs by MTT assay; format: functional, cell-based

Cholinesterase (Equus caballus, UniProt P81908), sequence (P81908 whole entry): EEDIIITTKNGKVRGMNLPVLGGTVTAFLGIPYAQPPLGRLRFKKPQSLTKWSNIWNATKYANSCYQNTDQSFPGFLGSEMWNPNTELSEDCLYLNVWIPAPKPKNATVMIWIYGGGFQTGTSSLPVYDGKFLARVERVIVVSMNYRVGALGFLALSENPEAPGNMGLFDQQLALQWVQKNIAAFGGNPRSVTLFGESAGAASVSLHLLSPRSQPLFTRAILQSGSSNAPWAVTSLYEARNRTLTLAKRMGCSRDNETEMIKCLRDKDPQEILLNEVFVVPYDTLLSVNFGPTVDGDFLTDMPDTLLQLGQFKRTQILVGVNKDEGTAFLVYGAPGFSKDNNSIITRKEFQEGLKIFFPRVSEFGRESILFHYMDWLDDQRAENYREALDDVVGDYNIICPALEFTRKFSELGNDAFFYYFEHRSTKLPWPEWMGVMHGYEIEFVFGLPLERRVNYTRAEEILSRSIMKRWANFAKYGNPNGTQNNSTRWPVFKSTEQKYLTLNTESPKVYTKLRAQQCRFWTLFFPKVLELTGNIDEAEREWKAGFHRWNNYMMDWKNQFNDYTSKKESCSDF
Acetylcholinesterase (Homo sapiens, UniProt P22303), sequence (P22303 whole entry): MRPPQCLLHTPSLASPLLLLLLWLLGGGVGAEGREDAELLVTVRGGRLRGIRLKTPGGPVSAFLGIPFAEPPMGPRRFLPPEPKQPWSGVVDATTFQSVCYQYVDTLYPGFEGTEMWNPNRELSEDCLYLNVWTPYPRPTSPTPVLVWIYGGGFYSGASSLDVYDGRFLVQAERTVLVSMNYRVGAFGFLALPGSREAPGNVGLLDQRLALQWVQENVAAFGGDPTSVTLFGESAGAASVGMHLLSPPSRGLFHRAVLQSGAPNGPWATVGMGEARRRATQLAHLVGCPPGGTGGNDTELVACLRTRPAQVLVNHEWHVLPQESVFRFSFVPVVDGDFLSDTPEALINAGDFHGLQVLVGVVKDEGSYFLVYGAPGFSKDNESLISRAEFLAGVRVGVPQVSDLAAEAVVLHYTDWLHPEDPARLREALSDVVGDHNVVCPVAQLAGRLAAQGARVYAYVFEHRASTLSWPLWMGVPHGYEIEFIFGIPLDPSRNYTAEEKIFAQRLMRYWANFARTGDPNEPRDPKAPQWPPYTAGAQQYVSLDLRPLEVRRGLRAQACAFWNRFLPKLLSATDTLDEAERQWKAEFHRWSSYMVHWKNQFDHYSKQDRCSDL
T5 sequence (O42275 whole entry): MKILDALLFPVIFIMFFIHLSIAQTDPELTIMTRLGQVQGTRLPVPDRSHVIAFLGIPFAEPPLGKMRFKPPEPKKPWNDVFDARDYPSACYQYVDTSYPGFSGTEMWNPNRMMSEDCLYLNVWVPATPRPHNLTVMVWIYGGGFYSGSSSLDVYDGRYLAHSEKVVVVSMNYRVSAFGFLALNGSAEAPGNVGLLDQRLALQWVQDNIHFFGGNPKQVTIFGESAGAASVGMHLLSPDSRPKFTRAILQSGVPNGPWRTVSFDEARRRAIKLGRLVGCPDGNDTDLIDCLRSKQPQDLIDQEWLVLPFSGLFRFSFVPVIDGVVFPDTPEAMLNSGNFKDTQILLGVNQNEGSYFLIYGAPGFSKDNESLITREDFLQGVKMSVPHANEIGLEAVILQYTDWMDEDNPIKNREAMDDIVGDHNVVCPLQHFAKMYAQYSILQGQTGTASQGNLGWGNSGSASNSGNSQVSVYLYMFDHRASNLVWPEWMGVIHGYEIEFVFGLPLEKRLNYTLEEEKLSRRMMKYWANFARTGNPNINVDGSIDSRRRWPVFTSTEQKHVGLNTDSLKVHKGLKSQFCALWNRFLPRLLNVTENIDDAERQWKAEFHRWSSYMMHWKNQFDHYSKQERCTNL
T6 sequence (P06276 whole entry): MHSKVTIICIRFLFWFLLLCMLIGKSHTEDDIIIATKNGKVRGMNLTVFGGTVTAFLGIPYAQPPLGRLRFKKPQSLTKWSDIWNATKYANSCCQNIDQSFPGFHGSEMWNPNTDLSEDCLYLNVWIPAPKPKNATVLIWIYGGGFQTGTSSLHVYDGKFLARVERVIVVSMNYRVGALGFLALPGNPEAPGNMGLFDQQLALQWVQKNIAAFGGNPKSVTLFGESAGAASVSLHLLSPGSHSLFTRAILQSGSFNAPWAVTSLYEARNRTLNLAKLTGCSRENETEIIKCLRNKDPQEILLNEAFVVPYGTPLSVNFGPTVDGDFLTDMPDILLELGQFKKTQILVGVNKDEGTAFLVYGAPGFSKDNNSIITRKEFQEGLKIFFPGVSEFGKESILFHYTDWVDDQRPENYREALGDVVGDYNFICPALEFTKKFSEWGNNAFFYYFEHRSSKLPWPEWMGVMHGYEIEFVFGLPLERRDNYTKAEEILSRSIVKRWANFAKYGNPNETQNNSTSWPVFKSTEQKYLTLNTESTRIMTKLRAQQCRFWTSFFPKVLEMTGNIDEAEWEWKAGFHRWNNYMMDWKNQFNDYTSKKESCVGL

## COc1cc2c(cc1OC)C(=O)C(CC1CCN(Cc3ccccc3)CC1)C2 (configuration not stated) [DONEPEZIL]
[1]
  inhibition at 10 µM: 0%
[2]
  inhibition at 10 µM: 0%

## CN(Cc1ccccc1)Cc1ccc(COc2ccc3ccc(=O)[nH]c3c2)cc1
[3]
  inhibition at 10 µM: 10%
[4]
  inhibition at 4 µM: 14%
[5]
  pIC50: 5.82
[6]
  pIC50: 5.77
[7]
  inhibition at 10 µM: 29%
[8]
  pIC50: 6.31
[9]
  pIC50: 5.35

## CN(Cc1ccc(COc2ccc3c(CO)cc(=O)oc3c2)cc1)Cc1cccc(Cl)c1
[3]
  inhibition at 10 µM: 0%
[10]
  pIC50: 6.62
[5]
  pIC50: 6.48
[6]
  pIC50: 6.20
[11]
  pIC50: 4.89
[12]
  inhibition: 14%
[8]
  pIC50: 6.60
[9]
  pIC50: 7.62

## Cc1c(C)c2ccc(OCCCCCCN(C)Cc3ccccc3)cc2oc1=O
[10]
  pIC50: 5.77
[13]
  pIC50: 6.29
[5]
  pIC50: 6.47
[14]
  pIC50: 6.02
[15]
  Ratio IC50: 0.3
[6]
  pIC50: 6.17
[11]
  pIC50: 6.72
[8]
  pIC50: 7.02
[9]
  pIC50: 6.49
[16]
  pKi: 7.10

## Cc1c(C)c2ccc(OCCCCCNCc3ccccc3)cc2oc1=O
[10]
  pIC50: 6.30
[13]
  pIC50: 5.66
[5]
  pIC50: 6.52
[14]
  pIC50: 6.02
[6]
  pIC50: 5.74
[11]
  pIC50: 6.41
[8]
  pIC50: 6.03
[9]
  pIC50: 7.54

## CN(Cc1ccccc1)Cc1ccc(COc2ccc3c(CO)cc(=O)oc3c2)cc1.Cl
[3]
  inhibition at 10 µM: 0%
[17]
  Papp B→A at 200 ug/ml: 33.8 ×10⁻⁶ cm/s
[18]
  Activity: Active
[19]
  efflux ratio at 200 ug/ml: 1.77
[20]
  Papp A→B at 200 ug/ml: 19.1 ×10⁻⁶ cm/s
[21]
  Activity: Active

## CCN(CCCCCCOc1ccc2c(C)c(C)c(=O)oc2c1)Cc1ccccc1
[10]
  pIC50: 6.14
[13]
  pIC50: 5.68
[5]
  pIC50: 6.36
[15]
  Ratio IC50: 3
[6]
  pIC50: 6.31
[11]
  pIC50: 6.94
[8]
  pIC50: 6.49
[9]
  pIC50: 7.74

## Cc1c(C)c2ccc(OCc3ccc(CN(C)Cc4ccccc4)cc3)cc2oc1=O
[3]
  inhibition at 10 µM: 0%
[10]
  pIC50: 5.92
[5]
  pIC50: 6.35
[6]
  pIC50: 6.16
[11]
  pIC50: 5.37
[12]
  inhibition: 46%
[8]
  pIC50: 7.00
[9]
  pIC50: 7.28

From ChEMBL document CHEMBL3585305, “Structure-Based Design and Optimization of Multitarget-Directed 2H-Chromen-2-one Derivatives as Potent Inhibitors of Monoamine Oxidase B and Cholinesterases” (J Med Chem, 2015)
